Results as given in US7105553B2, “Thiazolyl amide derivatives” (Bayer Aktiengesellschaft, priority 1999, dated 2006).
pIC50: −log10 of the molar value. Where two headings read alike, the source gives them in different places.

Columns and labels:
HSV-2 G = test: anti-HSV screening test (cytopathogenic effect, fluorescein diacetate read-out), HSV-2 G on Vero cells; assay type: cell-based; conditions: read-out: IC50 HSV-2 G/Vero
Protocol: (§1) HSV (HSV-1 Walki, HSV-1F or HSV-2G) was cultivated on Vero cells (ATCC CCL-81) under the following conditions: The cells were grown in M199 medium (5% foetal calf serum, 2 mM glutamine, 100 IU/ml penicillin, 100 μg/ml streptomycin) in cell culture bottles at 37° C. and 5% CO2. The cells were splitted twice per week, in each case 1:4. For the infection, the medium was removed, the cells were washed with Hank's solution, detached using 0.05% trypsin, 0.02% EDTA (Seromed L2143) and incubated at a density of 4×10^5 cells per ml under the abovementioned conditions for 24 hours. The medium was then removed and the virus solution was added at an m.o.i of <0.05 in a volume of 2 ml per 175 cm^2 of surface. The medium was incubated under the conditions mentioned for one hour and then made up to a volume of 50 ml per 175 cm^2 bottle. […] The virus was released by freezing (−80° C.) and thawing (37° C.) the cultures twice. Cell debris was removed by centrifugation (300 g, 10 min, 4° C.) and the supernatant was frozen down in aliquots at −80° C.
(§2) The anti-HSV action was determined in a screening test system in 96-well microtitre plates using various cell lines of neuronal, lymphoid and epithelial origin, such as, for example, Vero (kidney cell line of the green monkey), MEF (murine embryonal fibroblasts), HELF (humane embryonal fibroblasts), NT2 (humane neuronal cell line) or Jurkat (humane lymphoid T-cell line).
(§3) The substances (50 mM), dissolved in DMSO (dimethyl sulphoxide), are examined on microtitre plates (for example 96-well MTP) in final concentrations of 250-0.5 μM (micromolar) in two replications (4 substances/plate). In the case of potent substances, the dilutions are continued for several plates up to 0.5 pM (picomolar). Also examined are toxic and cytostatic effects of the substances. After an appropriate dilution of the substances (1:2) on the microtitre plate in medium, a suspension of cells (1×10^4 cells per well) such as, for example, of Vero cells in M199 (medium 199) with 5% foetal calf serum, 2 mM glutamine and optionally 100 IU/ml penicillin and 100 μg/ml streptomycin or of MEF cells in EMEM (Eagle's Minimum Essential Medium) with 10% foetal calf serum, 2 mM glutamine and optionally 100 IU/ml penicillin and 100 μg/ml streptomycin, or of HELF cells in EMEM with 10% foetal calf serum, 2 mM glutamine and optionally 100 IU/ml penicillin and 100 μg/ml streptomycin, or of NT2- and Jurkat cells in DMEM ([…] glucose plus pyridoxin) with 10% foetal calf serum, 2 mM glutamine, 1 mM sodium pyruvate, non-essential amino acids and optionally 100 IU/ml penicillin and 100 μg/ml streptomycin is added to each well and the cells in the relevant wells are infected with an appropriate amount of virus (HSV-1 F or HSV-2 G having an m.o.i (multiplicity of infection) of 0.0025 for HELF, Vero and MEF cells and an m.o.i of 0.1 for NT2 and Jurkat cells). The plates are then incubated at 37° C. in a CO2 incubator (5% CO2) for several days. […] The plates are initially evaluated visually using a microscope and then analysed using a fluorescent dye. To this end, the cell supernatant of all wells of the MTP is aspirated and the wells are filled with 200 μl of PBS wash solution. The PBS is then aspirated and all the wells are filled with 200 μl of fluorescent dye solution (fluorescein diacetate, 10 μg/ml in PBS). After an incubation time of 30-90 min, the test plates are read in a fluorescence detector at an excitation wavelength of 485 nm and an emission wavelength of 538 nm.

HSV-1 F = test: anti-HSV screening test (cytopathogenic effect, fluorescein diacetate read-out), HSV-1 F on Vero cells; assay type: cell-based; conditions: read-out: IC50 HSV-1 F/Vero
Protocol: as §1, §2, §3

HSV-2 = test: in-vivo action: survival of intranasally HSV-infected mice; set-up: species or system mice (BALB/cABom); conditions: Human alphaherpesvirus 2; HSV-2, intranasal infection 5×10^4 Pfu, treatment 3 times per day for 5 days from 6 hours after infection; read-out: ED50 (50% of the animals survive at this dose)
Protocol: 6 week-old female mice, BALB/cABom strain were obtained from a commercial breeder (Bomholtgard Breeding and Research Centre Ltd.).
The animals were anaesthetized with diethyl ether (Merck) in a sealed glass vessel. 50 μl of a dilution of the virus stock (infection dose 5×10^4 Pfu) were introduced into the nose of the anaesthetized animals using an Eppendorf pipette. In 90-100% of the animals, this infection dose causes death by a generalized infection with prominent respiratory and central-nervous symptoms on average after 5 to 8 days.
6 hours after the infection, the animals were treated with doses of 0.1-100 mg/kg of body mass, 3 times per day, at 7 a.m., 2 p.m. and 7 p.m., for a period of 5 days. The substances were pre-dissolved in DMSO and resuspended in tylose/PBS (Hoechst) (final concentration 1.5% DMSO, 0.5% tylose in PBS).
After the last administration, the animals were monitored further and the time of death was determined.

[1] = Human alphaherpesvirus 2, Vero cells infected with HSV-2 G, m.o.i. 0.0025, half-maximal fluorescence intensity vs non-infected cell control
[2] = Human alphaherpesvirus 1, Vero cells infected with HSV-1 F, m.o.i. 0.0025, half-maximal fluorescence intensity vs non-infected cell control

## Cc1nc(N(C)C(=O)Cc2ccc(-c3cccc([N+](=O)[O-])c3)cc2)sc1S(=O)(=O)N(C)C
other
  melting point: 81 °C

## Cc1nc(N(C)C(=O)Cc2ccc(-c3ccccc3)cc2)sc1S(=O)(=O)N(C)C
other
  melting point: 184 °C

## COc1ccc(F)cc1-c1ccc(CC(=O)N(CC2CCCO2)c2nc(C)c(S(N)(=O)=O)s2)cc1 (stereo not drawn)
other
  melting point: 79 °C

## Cc1nc(N(C)C(=O)Cc2ccc(-c3ccncc3F)cc2)sc1S(N)(=O)=O
other
  melting point: 223 °C

## Cc1nc(N(C)C(=O)Cc2ccc(-c3ccccc3)cc2F)sc1S(N)(=O)=O
other
  melting point: 130 °C

## CNS(=O)(=O)c1sc(N(C)C(=O)Cc2ccc(-c3cccc(C=O)c3)cc2)nc1C
other
  melting point: 192 °C

## CNS(=O)(=O)c1sc(N(C)C(=O)Cc2ccc(-c3cccc(N)c3)cc2)nc1C
other
  melting point: 193 °C

## CNS(=O)(=O)c1sc(N(C)C(=O)Cc2ccc(-c3ncccc3N)cc2)nc1C.Cl
other
  melting point: 160 °C

## Cc1nc(N(C)C(=O)Cc2ccc(-c3cccc(N4CCCC4)c3)cc2)sc1S(N)(=O)=O
other
  melting point: 152 °C

## CCOc1ccc(CC(=O)N(CCOC)c2nc(C)c(S(N)(=O)=O)s2)cc1
other
  melting point: 165 °C

## CCOc1ccc(CC(=O)N(C)c2nc(C)c(S(N)(=O)=O)s2)cc1
other
  melting point: 168 °C

## Cc1nc(N(C)C(=O)Cc2ccc(-c3cncc(C#N)c3)cc2)sc1S(N)(=O)=O
other
  melting point: 231 °C

## Cc1nc(N(C)C(=O)Cc2ccc(-c3ccccc3)cc2)sc1S(=O)(=O)NCCNC(=O)OC(C)(C)C
other
  melting point: 150 °C

## CNS(=O)(=O)c1sc(N(C)C(=O)Cc2ccc(-c3ccc(OC(F)(F)F)cc3)cc2)nc1C
other
  melting point: 109 °C

## CNS(=O)(=O)c1sc(N(C)C(=O)Cc2ccc(-c3ncccc3C(F)(F)F)cc2)nc1C
other
  melting point: 180 °C

## CNS(=O)(=O)c1sc(N(C)C(=O)Cc2ccc(-c3cc(F)ccc3C)cc2)nc1C [Example 8]
HSV-2 G; [1]
  pIC50: 7.00
other
  melting point: 186 °C
HSV-1 F; [2]
  pIC50: 7.00

## CCOc1ccc(CC(=O)N(C)c2nc(C)c(S(=O)(=O)N(C)C)s2)cc1 [Example 14]
HSV-2 G; [1]
  pIC50: 6.12
other
  melting point: 154 °C
HSV-1 F; [2]
  pIC50: 7.00

## CNS(=O)(=O)c1sc(N(CCN2CCCC2=O)C(=O)Cc2ccc(-c3ccccc3)cc2)nc1C [Example 23]
HSV-2 G; [1]
  pIC50: 7.00
other
  melting point: 156 °C
HSV-1 F; [2]
  pIC50: 7.52

## Cc1nc(N(C)C(=O)Cc2ccc(-c3ccccn3)cc2)sc1S(N)(=O)=O [Example 38, N-[5-(Aminosulphonyl)-4-methyl-1,3-thiazol-2-yl]-N-methyl-2-[4-(2-pyridinyl)phenyl]acetamide]
HSV-2 G; [1]
  pIC50: 7.80
HSV-1 F; [2]
  pIC50: 7.30

## Cc1nc(N(C)C(=O)Cc2ccc(-c3ccccc3F)cc2)sc1S(N)(=O)=O [Example 57, N-[5-(Aminosulphonyl)-4-methyl-1,3-thiazol-2-yl]-2-(2′-fluoro[1,1′-biphenyl]-4-yl)-N-methylacetamide]
HSV-2
  ED50: ~0.7 mg/kg
HSV-2 G; Human alphaherpesvirus 2, Vero
  pIC50: > 8.00
HSV-1 F; Human alphaherpesvirus 1, Vero
  pIC50: > 8.00

## Cc1nc(N(C)C(=O)Cc2ccc(-c3cc(F)ccc3F)cc2)sc1S(N)(=O)=O [Example 87, N-[5-(aminosulphonyl)-4-methyl-1,3-thiazol-2-yl]-2-(2′,5′-difluoro-1,1′-biphenyl-4-yl)-N-methylacetamide]
HSV-2 G; [1]
  pIC50: > 8.00
HSV-1 F; [2]
  pIC50: > 8.00

## Cc1nc(N(C)C(=O)Cc2ccc(-n3cccn3)cc2)sc1S(N)(=O)=O [Example 126, N-[5-(Aminosulphonyl)-4-methyl-1,3-thiazol-2-yl]-N-methyl-2-[4-(1H-pyrazol-1-yl)phenyl]acetamide]
HSV-2 G; [1]
  pIC50: 7.00
HSV-1 F; [2]
  pIC50: 8.00
